Data reported in EP4000617A1, “COMPOSITIONS FOR USE IN THE TREATMENT OF LEUKAEMIA” (Fundació Institut de Recerca Contra la Leucèmia Josep …, priority 2020, dated 2022).

Test system: Luc-positive MonoMac-1 AML cells
Test: Luc-positive MonoMac-1 AML xenograft in NSG mice, bioluminescence imaging
Format: in vivo, NOD-scid IL2Rgamma null (NSG) mice
Conditions: 10 mg/kg intraperitoneally on days 3, 4, 5, 6, 7, 10 and 11, at day 12, in comparison to the control

Substance: N,N-dimethyl 3-(10H-benz[b]indeno[2,1-d]thien-10-ylidene) -1-Propanamine [compound 87]
- amount of AML cells: remarkable reduction
